The values that follow come from patent publication US9617267B2, “Compounds and methods for kinase modulation, and indications therefor” (Plexxikon Inc., priority 2009, dated 2017).

Like-named read-outs stand apart in the source and are kept apart here.

In one data set the target is CYP2C19 (Homo sapiens (Human), UniProt P33261). The data set can be described thus: CYP enzyme inhibition, fluorescent substrate (CEC). As to conditions: read-out: Cyp IC50 2C19; CYP2C19, substrate CEC. In short, it runs like this:
(§1)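 First, 100 mM DMSO stocks are diluted into acetonitrile, then twofold through co-factor mix for 10 points. Next, mixtures are preincubated 10 min at 37 °C.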

Another data set deals with B-Raf V600E (Homo sapiens (Human), UniProt P15056, V600E). In words: B-Raf V600E kinase activity biochemical assay (AlphaScreen, biotin-MEK1 phosphorylation). As to conditions: for IC50: B-Raf V600E; for Biochemical activity ratio V600E/C: ratio of IC50 B-Raf V600E / c-Raf-1. In short, it runs like this:
(§2)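 Compounds from a 0.1 mM DMSO stock were tested at 8 serially diluted points. Kinase reactions with 100 μM ATP (final) ran 45 min at room temperature, then were stopped with EDTA buffer containing anti-phospho-MEK1/2 antibody plus streptavidin donor and protein A acceptor beads.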
On the technique in general: In Alpha technology, singlet oxygen from a donor bead excites a nearby acceptor bead.

The next data set has as its target CYP1A2 (Homo sapiens (Human), UniProt P05177). The data set can be described thus: CYP enzyme inhibition, fluorescent substrate (CEC). As to conditions: human, 15 min. An outline of the steps:
(§3)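 IC50 derived from loss of fluorescent metabolite across a 10-point 1:1 dilution series. CYP2D6: 1.5 pmol enzyme, 1.5 μM AMMC, 30 min at 37 °C, 409/530 nm; CYP1A2: 0.5 pmol, 5 μM CEC, 15 min, 409/460 nm. Compounds pre-incubated 10 min in NADPH-regenerating mix.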

Data set [1] concerns the target B-Raf (Homo sapiens (Human), UniProt P15056). In words: B-Raf kinase activity biochemical assay (AlphaScreen, biotin-MEK1 phosphorylation). As to conditions: B-Raf. In short, it runs like this: as §2
The test system of data set [2] is B-Raf. The description is as above. As to conditions: for Biochemical activity ratio B/V600E: ratio of IC50 B-Raf / B-Raf V600E; for Biochemical activity ratio B/C: ratio of IC50 B-Raf / c-Raf-1. In short, it runs like this: as §2
Data set [3] in a line: Relative solubility by turbidity threshold concentration in aqueous buffers (pH 1.5, 4.5, 6.8, 7.4). It counts as physicochemical. The settings on record: for turbidity threshold (L, M, H) 1.4: pH 1.4 [sic] (method: SGF pH 1.5); for turbidity threshold (L, M, H) 4.5: pH 4.5 (SIF); for turbidity threshold (L, M, H) 6.8: pH 6.8 (SIF); for turbidity threshold (L, M, H) 7.4: pH 7.4 (HEPES). An outline of the steps:
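Solubility class (high >250 μM, moderate 31.3–250 μM, low <31.3 μM) comes from the concentration where absorbance reaches a 0.01 threshold, averaged across 490/535/650 nm. Samples were compound dilutions from DMSO stock, 1 μL into 99 μL buffer at pH 1.5, 4.5, 6.8 or 7.4.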

The next data set concerns the target c-Raf-1 (Homo sapiens, UniProt P04049). The data set can be described thus: c-Raf-1 kinase activity biochemical assay (AlphaScreen, biotin-MEK1 phosphorylation). An outline of the steps: as §2
In the next data set the target is CYP3A4(BFC) (Homo sapiens (Human), UniProt P08684). In words: CYP enzyme inhibition, fluorescent substrate BFC. As to conditions: read-out: Cyp IC50 3A4(BFC); CYP3A4, substrate BFC. An outline of the steps: as §1
The next data set has as its target CYP2D6 (Homo sapiens (Human), UniProt P10635). The data set can be described thus: CYP enzyme inhibition, fluorescent substrate (AMMC). The format is in vitro ADME. The settings on record: read-out: Cyp IC50 2D6. In short, it runs like this: as §3
In the next data set the target is CYP2C9 (Homo sapiens (Human), UniProt P11712). The data set can be described thus: CYP enzyme inhibition, fluorescent substrate (MFC). As to conditions: read-out: Cyp IC50 2C9; CYP2C9, substrate MFC. In short, it runs like this: as §1
The target of another data set is CYP3A4(BQ) (Homo sapiens (Human), UniProt P08684). The data set can be described thus: CYP enzyme inhibition, fluorescent substrate BQ. Here is the method:
CYP (Cytochrome P450) enzymes are the major drug metabolizing enzymes present in the liver. The inhibition of CYP enzyme activity (IC50) for each of CYP1A2, CYP2C19, CYP2C9, CYP2D6, CYP3A4(BFC) and CYP3A4(BQ) is determined for compounds, where inhibition of metabolism of a known substrate leads to a decrease in the fluorescence of the metabolized product. The fluorescence of the product is monitored as a function of compound concentration.
Compounds are dissolved in dimethyl sulfoxide to a concentration of 100 mM. These are diluted 1 μL into 82 μL of acetonitrile. […] These are then serially diluted 1:1 (160 μL to 160 μL co-factor mix) for a total of 10 points. A 10 μL aliquot of this final mixture is dispensed into 384 well assay plates and incubated for 10 minutes at 37° C. […] Assay plates are incubated at 37° C. […] The signal versus compound concentration is used to determine the IC50. The enzymes and substrates for this assay are obtained from BD Biosciences.

[4] abbreviates: read-out: Cyp IC50 3A4(BQ), CYP3A4, substrate BQ.

Chain of CYP2C9 (P11712 whole entry): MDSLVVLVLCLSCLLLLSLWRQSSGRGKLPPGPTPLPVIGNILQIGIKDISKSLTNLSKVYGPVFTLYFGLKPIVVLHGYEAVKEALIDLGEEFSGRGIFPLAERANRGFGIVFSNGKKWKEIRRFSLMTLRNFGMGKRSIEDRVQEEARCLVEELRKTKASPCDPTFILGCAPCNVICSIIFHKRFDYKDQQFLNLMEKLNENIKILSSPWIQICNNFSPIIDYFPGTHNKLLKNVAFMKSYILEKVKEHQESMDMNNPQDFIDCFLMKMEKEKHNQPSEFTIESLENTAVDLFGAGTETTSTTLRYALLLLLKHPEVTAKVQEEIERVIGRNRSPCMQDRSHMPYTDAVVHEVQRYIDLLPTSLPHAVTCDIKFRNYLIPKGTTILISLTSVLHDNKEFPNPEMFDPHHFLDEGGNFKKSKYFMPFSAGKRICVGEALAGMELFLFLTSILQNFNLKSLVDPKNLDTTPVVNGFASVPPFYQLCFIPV
Chain of B-Raf V600E (P15056 whole entry V600E): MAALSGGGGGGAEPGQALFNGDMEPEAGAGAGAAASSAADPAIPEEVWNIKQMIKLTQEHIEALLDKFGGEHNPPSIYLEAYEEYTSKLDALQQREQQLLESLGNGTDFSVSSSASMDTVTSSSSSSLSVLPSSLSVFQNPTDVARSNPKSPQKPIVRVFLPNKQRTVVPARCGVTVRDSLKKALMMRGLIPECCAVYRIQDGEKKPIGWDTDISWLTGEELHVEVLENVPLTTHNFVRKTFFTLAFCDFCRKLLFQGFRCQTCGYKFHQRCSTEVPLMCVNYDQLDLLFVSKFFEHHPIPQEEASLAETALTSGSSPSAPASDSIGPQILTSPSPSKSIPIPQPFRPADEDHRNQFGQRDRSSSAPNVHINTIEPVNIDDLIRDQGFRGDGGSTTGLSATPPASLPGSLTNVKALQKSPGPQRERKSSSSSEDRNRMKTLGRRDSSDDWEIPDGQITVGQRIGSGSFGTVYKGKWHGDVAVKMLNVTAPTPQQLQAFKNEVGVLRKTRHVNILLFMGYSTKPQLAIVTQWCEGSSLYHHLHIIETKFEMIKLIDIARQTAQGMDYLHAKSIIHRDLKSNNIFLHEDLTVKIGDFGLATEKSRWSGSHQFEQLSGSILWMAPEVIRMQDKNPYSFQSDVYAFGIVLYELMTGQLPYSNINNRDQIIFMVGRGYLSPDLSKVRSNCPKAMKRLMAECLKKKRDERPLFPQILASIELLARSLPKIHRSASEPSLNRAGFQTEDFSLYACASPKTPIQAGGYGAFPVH
Chain of CYP2C19 (P33261 whole entry): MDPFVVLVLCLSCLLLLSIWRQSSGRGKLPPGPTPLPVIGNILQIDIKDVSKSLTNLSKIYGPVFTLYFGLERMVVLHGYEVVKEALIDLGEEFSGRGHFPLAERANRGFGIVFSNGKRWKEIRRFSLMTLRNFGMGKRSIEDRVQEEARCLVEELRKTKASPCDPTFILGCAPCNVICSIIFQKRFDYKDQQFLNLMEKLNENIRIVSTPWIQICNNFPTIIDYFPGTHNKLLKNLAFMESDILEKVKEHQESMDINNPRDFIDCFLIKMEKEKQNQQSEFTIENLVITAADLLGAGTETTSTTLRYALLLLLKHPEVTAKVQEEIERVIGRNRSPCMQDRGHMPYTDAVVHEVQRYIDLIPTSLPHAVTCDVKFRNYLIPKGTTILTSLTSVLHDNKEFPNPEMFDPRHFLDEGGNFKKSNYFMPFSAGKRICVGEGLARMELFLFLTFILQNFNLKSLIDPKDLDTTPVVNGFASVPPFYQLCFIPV
Chain of CYP1A2 (P05177 whole entry): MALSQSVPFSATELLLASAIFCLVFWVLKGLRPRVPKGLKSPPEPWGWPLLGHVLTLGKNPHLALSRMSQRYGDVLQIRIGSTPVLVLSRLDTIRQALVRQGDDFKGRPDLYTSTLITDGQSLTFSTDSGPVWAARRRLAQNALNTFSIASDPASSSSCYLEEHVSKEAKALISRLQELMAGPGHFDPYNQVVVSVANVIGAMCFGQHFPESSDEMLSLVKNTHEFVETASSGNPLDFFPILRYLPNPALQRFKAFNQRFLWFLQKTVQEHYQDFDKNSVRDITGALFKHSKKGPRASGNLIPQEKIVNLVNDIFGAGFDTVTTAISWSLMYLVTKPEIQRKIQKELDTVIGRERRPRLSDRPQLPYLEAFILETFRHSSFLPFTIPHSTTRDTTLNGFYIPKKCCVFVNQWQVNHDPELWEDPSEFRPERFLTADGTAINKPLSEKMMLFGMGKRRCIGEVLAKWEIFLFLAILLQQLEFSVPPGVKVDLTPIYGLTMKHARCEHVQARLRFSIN
Chain of CYP3A4(BFC) (P08684 whole entry): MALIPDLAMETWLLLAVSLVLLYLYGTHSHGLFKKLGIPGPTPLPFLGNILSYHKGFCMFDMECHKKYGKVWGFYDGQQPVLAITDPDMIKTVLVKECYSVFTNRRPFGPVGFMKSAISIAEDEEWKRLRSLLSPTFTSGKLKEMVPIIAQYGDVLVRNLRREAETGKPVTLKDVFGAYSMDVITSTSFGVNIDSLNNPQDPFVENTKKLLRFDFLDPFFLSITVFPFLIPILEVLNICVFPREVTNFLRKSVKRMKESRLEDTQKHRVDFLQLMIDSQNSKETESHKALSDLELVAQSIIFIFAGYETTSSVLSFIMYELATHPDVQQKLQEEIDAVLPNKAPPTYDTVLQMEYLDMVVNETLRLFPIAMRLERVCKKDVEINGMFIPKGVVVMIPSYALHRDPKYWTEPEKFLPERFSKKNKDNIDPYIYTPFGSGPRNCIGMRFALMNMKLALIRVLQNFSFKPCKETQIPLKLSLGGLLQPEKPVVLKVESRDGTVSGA
Chain of CYP3A4(BQ) (P08684 whole entry): as above
Chain of CYP2D6 (P10635 whole entry): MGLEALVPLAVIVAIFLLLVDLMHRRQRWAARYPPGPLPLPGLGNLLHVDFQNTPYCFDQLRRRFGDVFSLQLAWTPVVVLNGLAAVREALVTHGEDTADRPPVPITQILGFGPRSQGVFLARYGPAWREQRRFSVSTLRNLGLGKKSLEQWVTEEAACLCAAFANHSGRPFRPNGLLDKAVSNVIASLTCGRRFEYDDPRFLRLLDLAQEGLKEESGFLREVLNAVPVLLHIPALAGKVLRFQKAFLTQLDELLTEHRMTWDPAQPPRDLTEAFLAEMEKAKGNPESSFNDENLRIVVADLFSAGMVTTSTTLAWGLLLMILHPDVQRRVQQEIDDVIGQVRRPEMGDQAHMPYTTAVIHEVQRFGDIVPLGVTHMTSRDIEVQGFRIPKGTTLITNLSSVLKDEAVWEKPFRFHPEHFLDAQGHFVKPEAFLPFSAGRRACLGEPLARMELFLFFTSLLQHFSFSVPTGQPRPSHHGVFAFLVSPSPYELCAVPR
Chain of B-Raf (Homo sapiens (Human), UniProt P15056) (P15056 whole entry): as the sequence (P15056 whole entry V600E) above, with E600V counted along it
Chain of c-Raf-1 (P04049 whole entry, looked up): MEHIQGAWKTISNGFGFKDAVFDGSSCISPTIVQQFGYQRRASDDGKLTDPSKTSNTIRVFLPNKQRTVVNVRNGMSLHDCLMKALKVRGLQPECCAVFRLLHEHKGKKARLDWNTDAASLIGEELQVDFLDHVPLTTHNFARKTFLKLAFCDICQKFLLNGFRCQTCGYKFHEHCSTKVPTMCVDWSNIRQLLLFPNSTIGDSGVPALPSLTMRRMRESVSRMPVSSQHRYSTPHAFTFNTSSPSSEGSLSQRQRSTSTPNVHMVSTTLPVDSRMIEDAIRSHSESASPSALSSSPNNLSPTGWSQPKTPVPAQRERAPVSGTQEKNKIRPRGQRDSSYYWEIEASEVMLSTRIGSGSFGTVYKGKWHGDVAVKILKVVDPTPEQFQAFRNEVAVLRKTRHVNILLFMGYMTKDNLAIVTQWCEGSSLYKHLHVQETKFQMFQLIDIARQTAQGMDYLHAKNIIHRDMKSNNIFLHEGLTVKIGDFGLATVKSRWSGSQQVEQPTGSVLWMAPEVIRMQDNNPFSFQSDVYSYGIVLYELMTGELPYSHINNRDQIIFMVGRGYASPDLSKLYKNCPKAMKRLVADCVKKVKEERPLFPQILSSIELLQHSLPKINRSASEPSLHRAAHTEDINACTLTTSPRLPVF

In the case of `CCCc1ccc(S(=O)(=O)Nc2ccc(F)c(C(=O)c3c[nH]c4ncnc(NC5COC5)c34)c2F)cc1` [P-1056, N-{2,4-Difluoro-3-[4-(oxetan-3-ylamino)-7H-pyrrolo[2,3-d]pyrimidine-5-carbonyl]-phenyl}-4-propyl-benzenesulfonamide], the IC50 – broadly, the concentration that gives 50% inhibition – at CYP2C19 is greater than 10 µM; on B-Raf V600E, greater than 0.1 µM; on CYP1A2 it was greater than 10 µM; against B-Raf [1], less than 0.1 µM; against c-Raf-1, less than 0.1 µM; on CYP3A4(BFC), greater than 10 µM. Besides, the IC50 at CYP2D6, at CYP2C9 and on CYP3A4(BQ) (setting [4]) was greater than 10 µM each time. For the same compound, the “Biochemical activity ratio V600E/C” value at B-Raf V600E is reported as greater than 10. Further, the “Biochemical activity ratio B/V600E” value in the data set with B-Raf [2] is given as 0.1-10. The “Biochemical activity ratio B/C” value in the data set on B-Raf [2] is given as greater than 10. In addition, the “turbidity threshold (L, M, H) 1.4” value in data set [3] is “M (moderate solubility if the threshold concentration is 31.3 μM to 250 μM)”. Further, in [3], the “turbidity threshold (L, M, H) 4.5” value is listed as “L (low solubility if the threshold concentration is <31.3 μM)”. Moreover, the “turbidity threshold (L, M, H) 6.8” value in data set [3] was “L (low solubility if the threshold concentration is <31.3 μM)”. For the same compound, the “turbidity threshold (L, M, H) 7.4” value in data set [3] is on record as “L (low solubility if the threshold concentration is <31.3 μM)”.

`CN(C)c1ncnc2[nH]cc(C(=O)c3c(F)ccc(NS(=O)(=O)c4ccc(C(F)(F)F)cc4)c3F)c12` [P-1049, N-[3-(4-Dimethylamino-7H-pyrrolo[2,3-d]pyrimidine-5-carbonyl)-2,4-difluoro-phenyl]-4-trifluoromethyl-benzenesulfonamide]: the IC50 was greater than 10 µM at CYP2C19; greater than 0.1 µM against B-Raf V600E; greater than 10 µM on CYP1A2; greater than 0.1 µM against B-Raf [1]; greater than 0.1 µM at c-Raf-1; greater than 10 µM on CYP3A4(BFC). Further, the IC50 on CYP2D6, at CYP2C9 and on CYP3A4(BQ) (setting [4]) was greater than 10 µM in each case. The “Biochemical activity ratio V600E/C” value on B-Raf V600E is on record as greater than 10. Also, the “Biochemical activity ratio B/V600E” value with B-Raf [2] was 0.1-10. Further, the “Biochemical activity ratio B/C” value with B-Raf [2] is greater than 10. In addition, the “turbidity threshold (L, M, H) 1.4” value in [3] was “M (moderate solubility if the threshold concentration is 31.3 μM to 250 μM)”. In data set [3], the “turbidity threshold (L, M, H) 4.5” value is given as “M (moderate solubility if the threshold concentration is 31.3 μM to 250 μM)”. Moreover, in data set [3], the “turbidity threshold (L, M, H) 6.8” value is “M (moderate solubility if the threshold concentration is 31.3 μM to 250 μM)”. The “turbidity threshold (L, M, H) 7.4” value in data set [3] is recorded as “M (moderate solubility if the threshold concentration is 31.3 μM to 250 μM)”.

As for `CCCS(=O)(=O)Nc1ccc(F)c(C(=O)c2c[nH]c3ncnc(Nc4ccccc4)c23)c1F` [P-1048, Propane-1-sulfonic acid [2,4-difluoro-3-(4-phenylamino-7H-pyrrolo[2,3-d]pyrimidine-5-carbonyl)-phenyl]-amide], the IC50 at CYP2C19 was greater than 10 µM; against B-Raf V600E, less than 0.1 µM; on CYP1A2, greater than 10 µM; on CYP3A4(BFC), greater than 10 µM; on CYP2D6, greater than 10 µM; on CYP2C9, greater than 10 µM. The IC50 on CYP3A4(BQ) (setting [4]) was greater than 10 µM.

Regarding `CCCS(=O)(=O)Nc1ccc(F)c(C(=O)c2c[nH]c3ncnc(NC4CCCC4)c23)c1F` [P-1081, Propane-1-sulfonic acid [3-(4-cyclopentylamino-7H-pyrrolo[2,3-d]pyrimidine-5-carbonyl)-2,4-difluoro-phenyl]-amide], the IC50 at CYP2C19, on CYP1A2, at CYP3A4(BFC), at CYP2D6, on CYP2C9 and at CYP3A4(BQ) (setting [4]) was greater than 10 µM throughout. Also, the “turbidity threshold (L, M, H) 1.4” value in [3] is “H (high solubility if the threshold concentration is >250 μm)”. Also, the “turbidity threshold (L, M, H) 4.5” value in [3] is “L (low solubility if the threshold concentration is <31.3 μM)”. Moreover, the “turbidity threshold (L, M, H) 6.8” value in data set [3] was “L (low solubility if the threshold concentration is <31.3 μM)”. The “turbidity threshold (L, M, H) 7.4” value in [3] is given as “L (low solubility if the threshold concentration is <31.3 μM)”.

For `CCCS(=O)(=O)Nc1ccc(F)c(C(=O)c2c[nH]c3ncnc(Nc4cccnc4)c23)c1F` [P-1078, Propane-1-sulfonic acid {2,4-difluoro-3-[4-(pyridin-3-ylamino)-7H-pyrrolo[2,3-d]pyrimidine-5-carbonyl]-phenyl}-amide], the IC50 at CYP2C19 was greater than 10 µM; on CYP1A2, greater than 10 µM; on CYP3A4(BFC), greater than 10 µM; on CYP2D6, greater than 10 µM; on CYP2C9 it was less than 5 µM; against CYP3A4(BQ), 5 to 10 µM. Also, the “turbidity threshold (L, M, H) 1.4” value in [3] is given as “M (moderate solubility if the threshold concentration is 31.3 μM to 250 μM)”. Moreover, the “turbidity threshold (L, M, H) 4.5” value in [3] is on record as “L (low solubility if the threshold concentration is <31.3 μM)”. Further, the “turbidity threshold (L, M, H) 6.8” value in data set [3] was “L (low solubility if the threshold concentration is <31.3 μM)”. Moreover, in [3], the “turbidity threshold (L, M, H) 7.4” value is “L (low solubility if the threshold concentration is <31.3 μM)”.

Consider `O=C(c1c(F)ccc(NS(=O)(=O)c2cc(F)ccc2F)c1F)c1c[nH]c2ncnc(NC3CC3)c12` [P-1104, N-[3-(4-Cyclopropylamino-7H-pyrrolo[2,3-d]pyrimidine-5-carbonyl)-2,4-difluoro-phenyl]-2,5-difluoro-benzenesulfonamide], for which the IC50 at CYP2C19, on CYP1A2, on CYP3A4(BFC), at CYP2D6, on CYP2C9 and on CYP3A4(BQ) (setting [4]) was greater than 10 µM in each case. The “turbidity threshold (L, M, H) 1.4” value in [3] is on record as “H (high solubility if the threshold concentration is >250 μm)”. In addition, the “turbidity threshold (L, M, H) 4.5” value in data set [3] was “M (moderate solubility if the threshold concentration is 31.3 μM to 250 μM)”. Besides, in data set [3], the “turbidity threshold (L, M, H) 6.8” value is on record as “M (moderate solubility if the threshold concentration is 31.3 μM to 250 μM)”. Moreover, the “turbidity threshold (L, M, H) 7.4” value in [3] is recorded as “M (moderate solubility if the threshold concentration is 31.3 μM to 250 μM)”.

Consider `CCCS(=O)(=O)Nc1ccc(F)c(C(=O)c2c[nH]c3ncnc(Nc4ccc(OC)cc4F)c23)c1F` [P-1101, Propane-1-sulfonic acid {2,4-difluoro-3-[4-(2-fluoro-4-methoxy-phenylamino)-7H-pyrrolo[2,3-d]pyrimidine-5-carbonyl]-phenyl}-amide], for which the IC50 at CYP2C19, on CYP1A2, on CYP3A4(BFC), on CYP2D6, on CYP2C9 and on CYP3A4(BQ) (setting [4]) was greater than 10 µM each time. For the same compound, in [3], the “turbidity threshold (L, M, H) 1.4” value was “L (low solubility if the threshold concentration is <31.3 μM)”. Also, the “turbidity threshold (L, M, H) 4.5” value in data set [3] was “L (low solubility if the threshold concentration is <31.3 μM)”. Also, the “turbidity threshold (L, M, H) 6.8” value in data set [3] is “L (low solubility if the threshold concentration is <31.3 μM)”. Also, the “turbidity threshold (L, M, H) 7.4” value in data set [3] was “L (low solubility if the threshold concentration is <31.3 μM)”.
